Assay results: ChEMBL document CHEMBL1139538, “ERbeta ligands. 3. Exploiting two binding orientations of the 2-phenylnaphthalene scaffold to achieve ERbeta selectivity” (J Med Chem, 2005)

Biological target: T1, Estrogen receptor (Homo sapiens, UniProt P03372)
T1 sequence (P03372 whole entry): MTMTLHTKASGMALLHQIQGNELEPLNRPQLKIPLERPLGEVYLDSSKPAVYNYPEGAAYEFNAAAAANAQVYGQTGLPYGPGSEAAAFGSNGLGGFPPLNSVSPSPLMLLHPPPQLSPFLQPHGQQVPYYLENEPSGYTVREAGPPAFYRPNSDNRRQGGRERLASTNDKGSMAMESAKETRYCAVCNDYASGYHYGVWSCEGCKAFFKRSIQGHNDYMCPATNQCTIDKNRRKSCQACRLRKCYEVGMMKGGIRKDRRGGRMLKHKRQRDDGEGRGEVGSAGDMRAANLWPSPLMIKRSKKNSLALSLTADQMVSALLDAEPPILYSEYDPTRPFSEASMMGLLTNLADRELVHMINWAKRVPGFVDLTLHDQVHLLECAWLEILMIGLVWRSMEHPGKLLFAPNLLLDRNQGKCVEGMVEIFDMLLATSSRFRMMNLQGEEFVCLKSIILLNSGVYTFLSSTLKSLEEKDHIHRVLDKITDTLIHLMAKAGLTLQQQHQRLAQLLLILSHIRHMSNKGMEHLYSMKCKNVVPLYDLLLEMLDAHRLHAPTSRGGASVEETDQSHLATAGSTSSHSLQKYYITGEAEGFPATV
Description: Inhibition of [3H]17-beta-estradiol binding to human estrogen receptor alpha expressed in Escherichia coli

Row | IC50 | SMILES
1 | 77 nM | Oc1ccc(-c2ccc3c(F)c(O)ccc3c2)cc1
2 | 180 nM | CC#Cc1cc(O)cc2ccc(-c3ccc(O)c(F)c3)cc12
3 | 638 nM | Oc1ccc(-c2ccc3ccccc3c2)cc1
4 | 877 nM | N#Cc1cc(O)c(C#N)c2ccc(-c3ccc(O)c(F)c3)cc12
5 | 442 nM | Oc1ccc(-c2ccc3ccc(O)cc3c2)cc1
6 | 266 nM | Oc1ccc(-c2ccc3c(Br)c(O)ccc3c2)cc1
7 | 3400 nM | Oc1ccc2ccc(-c3ccccc3)cc2c1
8 | 1450 nM | Oc1cccc(-c2ccc3c(O)cccc3c2)c1
9 | 73 nM | C#Cc1cc(O)cc2ccc(-c3ccc(O)c(F)c3)cc12
10 | 21 nM | Oc1ccc2cc(-c3ccc(O)c(F)c3)cc(F)c2c1
11 | 40 nM | Oc1ccc(-c2cc(F)c3c(Cl)c(O)ccc3c2)cc1
12 | 235 nM | CCc1cc(-c2ccc(O)c(F)c2)cc2ccc(O)cc12
13 | 22 nM | Oc1ccc(-c2cc(F)c3cc(O)ccc3c2)cc1
14 | 231 nM | O=Cc1cc(-c2ccc(O)c(F)c2)cc2ccc(O)cc12
15 | 58 nM | Oc1ccc(-c2ccc3c(Cl)c(O)ccc3c2)c(F)c1
16 | 96 nM | N#Cc1cc(O)cc2ccc(-c3ccc(O)c(F)c3)cc12
17 | 709 nM | O=[N+]([O-])c1c(O)ccc2cc(-c3ccc(O)cc3)ccc12
18 | 40 nM | Cc1cc(O)ccc1-c1ccc2c(Cl)c(O)ccc2c1
19 | 174 nM | COc1cc(O)ccc1-c1ccc2cc(O)ccc2c1
20 | 55 nM | N#Cc1cc(O)c(Cl)c2ccc(-c3ccc(O)c(F)c3)cc12
21 | 406 nM | Cc1c(O)cc(C#N)c2cc(-c3ccc(O)c(F)c3)ccc12
22 | 73 nM | O=Cc1cc(O)cc2ccc(-c3ccc(O)c(F)c3)cc12
23 | 116 nM | N#Cc1cc(O)c(Br)c2ccc(-c3ccc(O)c(F)c3)cc12
24 | > 5000 nM | Oc1ccc2cc(-c3ccccc3O)ccc2c1
25 | 24 nM | Oc1ccc(-c2ccc3cc(O)ccc3c2)c(F)c1
26 | 211 nM | Oc1ccc(-c2ccc3cc(O)ccc3c2)cc1

Row | IC50 | SMILES
27 | 35 nM | Oc1cc(F)c(-c2ccc3c(Cl)c(O)ccc3c2)c(F)c1
28 | 312 nM | N#Cc1cc(-c2ccc(O)c(F)c2)cc2ccc(O)c(F)c12
29 | 36 nM | Oc1ccc(-c2ccc3c(Cl)c(O)ccc3c2)c(Cl)c1
30 | 113 nM | CCc1cc(O)cc2ccc(-c3ccc(O)c(F)c3)cc12
31 | 10.3 nM | Oc1cc(F)c(-c2ccc3cc(O)ccc3c2)c(F)c1
32 | 131 nM | N#Cc1cc(-c2ccc(O)cc2)cc2ccc(O)c(Br)c12
33 | 186 nM | N#Cc1cc(-c2cc(F)c(O)cc2F)cc2ccc(O)cc12
34 | 26 nM | N#Cc1cc(-c2ccc(O)cc2F)cc2ccc(O)cc12
35 | 343 nM | CC#Cc1cc(-c2ccc(O)c(F)c2)cc2ccc(O)cc12
36 | 27 nM | Oc1ccc2cc(-c3cc(F)c(O)cc3F)ccc2c1
37 | 247 nM | C#Cc1cc(-c2ccc(O)c(F)c2)cc2ccc(O)cc12
38 | 118 nM | Oc1cc(F)c(-c2ccc3c(Cl)c(O)ccc3c2)cc1F
39 | 107 nM | Oc1ccc2cc(-c3ccc(O)c(Cl)c3)ccc2c1
40 | 2640 nM | Oc1cccc(-c2ccc3ccc(O)cc3c2)c1
41 | 84 nM | N#Cc1cc(O)cc2ccc(-c3ccc(O)cc3)cc12
42 | 40 nM | Cc1cc(O)ccc1-c1ccc2cc(O)ccc2c1
43 | 98 nM | N#Cc1cc(O)c(Cl)c2ccc(-c3ccc(O)cc3)cc12
44 | 43 nM | Oc1ccc(-c2cc(Cl)c3c(Cl)c(O)ccc3c2)cc1
45 | 254 nM | C=Cc1cc(-c2ccc(O)c(F)c2)cc2ccc(O)cc12
46 | 1230 nM | Oc1ccc(-c2ccc3c(-c4ccccc4)c(O)ccc3c2)cc1
47 | 30 nM | Oc1ccc(-c2cc(Cl)c3cc(O)ccc3c2)cc1
48 | 527 nM | C=Cc1cc(O)cc2ccc(-c3ccc(O)c(F)c3)cc12
49 | 109 nM | N#Cc1cc(-c2ccc(O)cc2)cc2ccc(O)c(Cl)c12
50 | 1340 nM | Oc1ccc2cc(-c3ccccc3)ccc2c1
51 | 45 nM | N#Cc1cc(-c2c(F)cc(O)cc2F)cc2ccc(O)cc12

Row | SMILES | IC50
52 | Oc1ccc(-c2ccc3c(Cl)c(O)ccc3c2)cc1 | 91 nM

Tested on: Rattus norvegicus
Assay: Effect of oral administration of 10 mg/kg compound on colon histology (haemoglobin) in HLA-B27 transgenic rats
Type: functional

Row | SMILES | Activity
53 | N#Cc1cc(-c2ccc(O)c(F)c2)cc2ccc(O)cc12 | 0.35 mg/mL

Biological target: Estrogen receptor beta (Homo sapiens, UniProt Q92731)
Sequence (Q92731 whole entry): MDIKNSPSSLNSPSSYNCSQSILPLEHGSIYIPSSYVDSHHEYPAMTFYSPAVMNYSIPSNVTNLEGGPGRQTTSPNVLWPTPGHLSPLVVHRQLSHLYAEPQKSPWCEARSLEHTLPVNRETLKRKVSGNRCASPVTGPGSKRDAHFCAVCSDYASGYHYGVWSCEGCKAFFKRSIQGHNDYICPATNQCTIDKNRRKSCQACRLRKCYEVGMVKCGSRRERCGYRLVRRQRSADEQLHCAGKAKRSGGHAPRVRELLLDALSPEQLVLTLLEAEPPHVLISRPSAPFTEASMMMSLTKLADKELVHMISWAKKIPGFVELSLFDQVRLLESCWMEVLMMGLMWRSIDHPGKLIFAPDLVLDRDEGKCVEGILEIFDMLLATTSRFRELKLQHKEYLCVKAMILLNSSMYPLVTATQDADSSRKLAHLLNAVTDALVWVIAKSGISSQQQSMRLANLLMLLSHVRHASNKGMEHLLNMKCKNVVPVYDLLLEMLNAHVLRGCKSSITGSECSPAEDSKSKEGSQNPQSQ

Row | IC50 | SMILES
54 | 7 nM | Oc1ccc(-c2ccc3c(F)c(O)ccc3c2)cc1
55 | 10.6 nM | Oc1ccc2cc(-c3cc(F)c(O)c(F)c3)ccc2c1Cl
56 | 5.5 nM | CC#Cc1cc(O)cc2ccc(-c3ccc(O)c(F)c3)cc12
57 | 5.8 nM | Oc1ccc(-c2ccc3c(O)cccc3c2)cc1
58 | 28 nM | N#Cc1cc(O)c(C#N)c2ccc(-c3ccc(O)c(F)c3)cc12
59 | 44 nM | Oc1ccc(-c2ccc3ccc(O)cc3c2)cc1
60 | 13 nM | Oc1ccc(-c2ccc3c(Br)c(O)ccc3c2)cc1
61 | 205 nM | Oc1cccc(-c2ccc3c(O)cccc3c2)c1
62 | 1.2 nM | C#Cc1cc(O)cc2ccc(-c3ccc(O)c(F)c3)cc12
63 | 1.5 nM | Oc1ccc2cc(-c3ccc(O)c(F)c3)cc(F)c2c1
64 | 1.1 nM | Oc1ccc(-c2cc(F)c3c(Cl)c(O)ccc3c2)cc1
65 | 2.4 nM | CCc1cc(-c2ccc(O)c(F)c2)cc2ccc(O)cc12
66 | 1.6 nM | Oc1ccc(-c2cc(F)c3cc(O)ccc3c2)cc1
67 | 3.4 nM | O=Cc1cc(-c2ccc(O)c(F)c2)cc2ccc(O)cc12
68 | 1.2 nM | Oc1ccc(-c2ccc3c(Cl)c(O)ccc3c2)c(F)c1
69 | 2.1 nM | N#Cc1cc(O)cc2ccc(-c3ccc(O)c(F)c3)cc12
70 | 199 nM | O=[N+]([O-])c1c(O)ccc2cc(-c3ccc(O)cc3)ccc12
71 | 2.6 nM | N#Cc1cc(O)c(Cl)c2ccc(-c3ccc(O)c(F)c3)cc12
72 | 6 nM | Cc1c(O)cc(C#N)c2cc(-c3ccc(O)c(F)c3)ccc12
73 | 30 nM | Oc1cccc(-c2ccc3cc(O)ccc3c2)c1
74 | 1.1 nM | O=Cc1cc(O)cc2ccc(-c3ccc(O)c(F)c3)cc12
75 | 4.5 nM | N#Cc1cc(O)c(Br)c2ccc(-c3ccc(O)c(F)c3)cc12
76 | 2000 nM | Oc1ccc2cc(-c3ccccc3O)ccc2c1
77 | 4 nM | Oc1ccc(-c2ccc3c(Cl)c(O)ccc3c2)cc1F
78 | 2 nM | Oc1ccc(-c2ccc3cc(O)ccc3c2)c(F)c1
79 | 16.3 nM | Oc1ccc(-c2ccc3cc(O)ccc3c2)cc1
80 | 3.4 nM | Oc1cc(F)c(-c2ccc3c(Cl)c(O)ccc3c2)c(F)c1

Row | IC50 | SMILES
81 | 5.6 nM | N#Cc1cc(-c2ccc(O)c(F)c2)cc2ccc(O)c(F)c12
82 | 3.3 nM | Oc1ccc(-c2ccc3c(Cl)c(O)ccc3c2)c(Cl)c1
83 | 2.5 nM | CCc1cc(O)cc2ccc(-c3ccc(O)c(F)c3)cc12
84 | 2.3 nM | Oc1cc(F)c(-c2ccc3cc(O)ccc3c2)c(F)c1
85 | 12 nM | N#Cc1cc(-c2ccc(O)cc2)cc2ccc(O)c(Br)c12
86 | 6.9 nM | N#Cc1cc(-c2cc(F)c(O)cc2F)cc2ccc(O)cc12
87 | 0.5 nM | N#Cc1cc(-c2ccc(O)cc2F)cc2ccc(O)cc12
88 | 10 nM | CC#Cc1cc(-c2ccc(O)c(F)c2)cc2ccc(O)cc12
89 | 2.8 nM | Oc1ccc2cc(-c3cc(F)c(O)cc3F)ccc2c1
90 | 6.3 nM | C#Cc1cc(-c2ccc(O)c(F)c2)cc2ccc(O)cc12
91 | 8.5 nM | Oc1cc(F)c(-c2ccc3c(Cl)c(O)ccc3c2)cc1F
92 | 11 nM | Oc1ccc2cc(-c3ccc(O)c(Cl)c3)ccc2c1
93 | 566 nM | Oc1cccc(-c2ccc3ccc(O)cc3c2)c1
94 | 2 nM | N#Cc1cc(O)cc2ccc(-c3ccc(O)cc3)cc12
95 | 10 nM | Cc1cc(O)ccc1-c1ccc2cc(O)ccc2c1
96 | 3 nM | N#Cc1cc(O)c(Cl)c2ccc(-c3ccc(O)cc3)cc12
97 | 9 nM | Oc1ccc(-c2cc(Cl)c3c(Cl)c(O)ccc3c2)cc1
98 | 4.4 nM | C=Cc1cc(-c2ccc(O)c(F)c2)cc2ccc(O)cc12
99 | 5 nM | Oc1ccc2cc(-c3ccc(O)c(F)c3)ccc2c1
100 | 748 nM | Oc1ccc(-c2ccc3c(-c4ccccc4)c(O)ccc3c2)cc1
101 | 2.3 nM | Oc1ccc(-c2cc(Cl)c3cc(O)ccc3c2)cc1
102 | 1.4 nM | Oc1ccc(-c2ccc3cc(O)ccc3c2)c(Cl)c1
103 | 7.3 nM | C=Cc1cc(O)cc2ccc(-c3ccc(O)c(F)c3)cc12
104 | 8.4 nM | Oc1ccc2cc(-c3cc(F)c(O)c(F)c3)ccc2c1
105 | 6 nM | N#Cc1cc(-c2ccc(O)cc2)cc2ccc(O)c(Cl)c12
106 | 374 nM | Oc1ccc2cc(-c3ccccc3)ccc2c1
107 | 2.2 nM | N#Cc1cc(-c2c(F)cc(O)cc2F)cc2ccc(O)cc12

Tested on: Rattus norvegicus
Assay: Effect of oral administration of 1 mg/kg compound on colon histology (haemoglobin) in HLA-B27 transgenic rats
Type: functional

Row | SMILES | Activity
108 | N#Cc1cc(-c2ccc(O)c(F)c2)cc2ccc(O)cc12 | 0.45 mg/mL

Biological target: T2, Estrogen receptor (Rattus norvegicus) (UniProt P06211+Q62986)
Description: Effect on uterine weight of immature rats at 2 mg/rat/day dose after 3 days

Row | SMILES | Weight
109 | N#Cc1cc(-c2ccc(O)c(F)c2)cc2ccc(O)cc12 | 23.3 mg

Biological target: T2, Estrogen receptor (Rattus norvegicus)
Remark: another data set of the same source
Description: Effect on uterine weight in immature rats in combination with 17R-ethinyl-17-beta-estradiol after 3 days

Row | SMILES | Weight
110 | N#Cc1cc(-c2ccc(O)c(F)c2)cc2ccc(O)cc12 | 81.9 mg
